# Patent US20250382344A1, “Soluble GLP1/GIP/NPY2 Receptor Triple Agonists” (Boehringer Ingelheim International GmH, priority 2024, published 2025)
# Experiments:
# [1] = Solubility in 0.1 M phosphate buffer at pH 7; type: physicochemical; settings: 0.1 M phosphate buffer at pH 7, 10 mg/mL final peptide concentration, shaking 2 hours at room temperature, peptides as TFA-salts, measured sample pH 6.5-7.0; for solubility: read-out: Solubility
# Description: Peptides (as TFA-salts) were weighed out in a filter unit (Mini-UniPrep Syringeless Filter 0.45 μm, Whatman PVDF), and 0.1 M phosphate buffer at pH 7 was added to achieve 10 mg/mL final peptide concentration. The peptides were dissolved by shaking the filter units horizontally at 600 rpm for 2 hours at room temperature. Samples were then filtered to remove any insoluble particles. Controls were prepared by weighing out the corresponding peptide solid material and dissolving it in an appropriate vehicle (e.g. ACN:H2O) to a final concentration of 1 mg/mL. Both, the control and sample were analyzed by reversed phase chromatography. The area under the peak of the sample was compared to the control and the solubility was calculated based on that ratio. The pH was measured and recorded for each sample.
# hGIPR = molecular target: T1, hGIPR (Homo sapiens, UniProt P48546); assay: hGIPR CreLuc assay in 0.5% and 100% plasma (CHO CRE-luciferase reporter cells); type: cell-based; settings: 0.5% human plasma, read-out: hGIPR 0.5% hP
# T1 construct: expressed in transfected cells; host or cells: CHO CRE-luciferase reporter cells
# T1 sequence (P48546 22-466): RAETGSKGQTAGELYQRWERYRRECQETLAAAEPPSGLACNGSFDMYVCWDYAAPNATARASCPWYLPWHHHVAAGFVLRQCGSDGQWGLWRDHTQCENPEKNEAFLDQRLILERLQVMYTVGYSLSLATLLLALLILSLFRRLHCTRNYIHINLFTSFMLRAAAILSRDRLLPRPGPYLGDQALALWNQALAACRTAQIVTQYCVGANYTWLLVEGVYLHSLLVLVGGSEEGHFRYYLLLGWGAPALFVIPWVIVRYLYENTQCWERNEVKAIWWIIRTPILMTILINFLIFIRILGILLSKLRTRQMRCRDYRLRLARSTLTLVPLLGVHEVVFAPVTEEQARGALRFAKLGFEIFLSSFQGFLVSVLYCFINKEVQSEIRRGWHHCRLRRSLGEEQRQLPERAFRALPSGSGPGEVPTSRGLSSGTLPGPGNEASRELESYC
# Description: CHO and HEK-293 recombinant cell lines express a luciferase reporter gene under control of the CAMP responsive element (CRE). As a second recombinant protein the GLP-1 and NPY2 receptors were expressed in the reporter gene HEK cells, and the GIP receptor was expressed in the reporter gene CHO cells, respectively. Stimulation of these recombinant cells with an agonist leads to an increase of intracellular CAMP levels. In the presence of CAMP, the transcription factor CRE binding protein (CREB) binds to the CRE and to the CREB binding protein (CBP), which leads to transcription of the luciferase reporter gene. Peptides upon serial-dilution in 100% DMSO were transferred into 384-well assay plates with 5 μl pre-dispensed assay buffer (1×HBSS, 20 mM HEPES, pH7.4 supplemented with 0.5% human plasma) using acoustic dispensing on a Labcyte ECHO. Cryo-preserved transgenic reporter gene cells were thawed in assay buffer. 20 μl (10.000 cells/well) were added to the plate with the peptides and incubated for 4 hours at 37° C. in a humidified incubator. Following incubation, assay plates are equilibrated to room temperature, followed by addition of 25 μl of Bright-Glo™ Luciferase reagent, incubation at room temperature for 10 minutes and analysis of luminescence (Envision Reader). […] EC50 values were calculated by non-linear regression using sigmoid concentration-response with variable slope.
# The same assays were run in the presence of 100% plasma with no additional buffer constituents.
solubility [1] [µg/mL],SMILES,further results
4800,"CC[C@H](C)[C@H](NC(=O)[C@H](CC(C)C)NC(=O)[C@H](Cc1c[nH]cn1)NC(=O)[C@H](CCCNC(=N)N)NC(=O)[C@@H](NC(=O)[C@H](Cc1ccccc1)NC(=O)[C@H](C)NC(=O)C(C)(C)NC(=O)[C@H](CCC(N)=O)NC(=O)[C@H](C)NC(=O)[C@H](CCC(N)=O)NC(=O)[C@H](CCCCN)NC(=O)[C@H](CCC(=O)O)NC(=O)[C@H](CC(C)C)NC(=O)C(C)(C)NC(=O)[C@@H](NC(=O)[C@H](CO)NC(=O)[C@H](Cc1ccc(O)cc1)NC(=O)[C@H](CC(=O)O)NC(=O)[C@H](CO)NC(=O)[C@@H](NC(=O)[C@H](Cc1ccccc1)NC(=O)[C@@H](NC(=O)CNC(=O)[C@H](CCC(=O)O)NC(=O)C(C)(C)NC(=O)[C@@H](N)Cc1ccc(O)cc1)[C@@H](C)O)[C@@H](C)O)[C@@H](C)CC)C(C)C)C(=O)N[C@@H](CC(N)=O)C(=O)N[C@@H](CCCCNC(=O)COCCOCCNC(=O)COCCOCCNC(=O)CC[C@H](NC(=O)CC[C@H](NC(=O)CC[C@H](NC(=O)CC[C@H](NC(=O)CC[C@H](NC(=O)CCCCCCCCCCCCCCCCC(=O)O)C(=O)O)C(=O)O)C(=O)O)C(=O)O)C(=O)O)C(=O)NC(C)(C)C(=O)N[C@H](C(=O)N[C@@H](CCCNC(=N)N)C(=O)N[C@@H](CCC(N)=O)C(=O)N[C@@H](CCCNC(=N)N)C(=O)N[C@@H](Cc1ccc(O)cc1)C(N)=O)[C@@H](C)O [Compound 117, Y-Aib-E-G-T-F-T-S-D-Y-S-I-Aib-L-E-K-Q-A-Q-Aib-A-F-V-R-H-L-I-N-K(1,3)-Aib-T-R-Q-R-Y-NH2.C18DA-gGlu-gGlu-gGlu-gGlu-gGlu-OEG-OEG(1,2)]",
,"CC[C@H](C)[C@H](NC(=O)[C@H](CO)NC(=O)[C@H](Cc1ccc(O)cc1)NC(=O)[C@H](CC(=O)O)NC(=O)[C@H](CO)NC(=O)[C@@H](NC(=O)[C@H](Cc1ccccc1)NC(=O)[C@@H](NC(=O)CNC(=O)[C@H](CCC(=O)O)NC(=O)C(C)(C)NC(=O)[C@@H](N)Cc1ccc(O)cc1)[C@@H](C)O)[C@@H](C)O)C(=O)NC(C)(C)C(=O)N[C@@H](CC(C)C)C(=O)N[C@@H](CCC(=O)O)C(=O)N[C@@H](CCCCN)C(=O)N[C@@H](CCC(N)=O)C(=O)N[C@@H](C)C(=O)N[C@@H](CCC(N)=O)C(=O)NC(C)(C)C(=O)N[C@@H](C)C(=O)N[C@@H](Cc1ccccc1)C(=O)N[C@H](C(=O)N[C@@H](CCCNC(=N)N)C(=O)N[C@@H](Cc1c[nH]cn1)C(=O)N[C@@H](CC(C)C)C(=O)N[C@@H](CC(C)C)C(=O)N[C@@H](CC(N)=O)C(=O)N[C@@H](CCCCNC(=O)[C@@H](N)CCCCNC(=O)CC[C@H](NC(=O)CC[C@H](NC(=O)CC[C@H](NC(=O)CC[C@H](NC(=O)CC[C@H](NC(=O)CC[C@H](NC(=O)CCCCCCCCCCCCCCCCCCC(=O)O)C(=O)O)C(=O)O)C(=O)O)C(=O)O)C(=O)O)C(=O)O)C(=O)NC(C)(C)C(=O)N[C@H](C(=O)N[C@@H](CCCNC(=N)N)C(=O)N[C@@H](CCC(N)=O)C(=O)N[C@@H](CCCNC(=N)N)C(=O)N[C@@H](Cc1ccc(O)cc1)C(N)=O)[C@@H](C)O)C(C)C [Compound 80, Y-Aib-E-G-T-F-T-S-D-Y-S-I-Aib-L-E-K-Q-A-Q-Aib-A-F-V-R-H-L-L-N-K(1,3)-Aib-T-R-Q-R-Y-NH2.C20DA-gGlu-gGlu-gGlu-gGlu-gGlu-gGlu-eLys(1,2)]",EC50 (hGIPR): 1.7 nM
4400,"CC[C@H](C)[C@H](NC(=O)[C@H](CC(C)C)NC(=O)[C@H](Cc1c[nH]cn1)NC(=O)[C@H](CCCNC(=N)N)NC(=O)[C@@H](NC(=O)[C@H](Cc1ccccc1)NC(=O)[C@H](C)NC(=O)C(C)(C)NC(=O)[C@H](CCC(N)=O)NC(=O)[C@H](C)NC(=O)[C@H](CCC(N)=O)NC(=O)[C@H](CCCCN)NC(=O)[C@H](CCC(=O)O)NC(=O)[C@H](CC(C)C)NC(=O)C(C)(C)NC(=O)[C@H](CCC(=O)O)NC(=O)[C@H](CO)NC(=O)[C@H](Cc1ccc(O)cc1)NC(=O)[C@H](CC(=O)O)NC(=O)[C@H](CO)NC(=O)[C@@H](NC(=O)[C@H](Cc1ccccc1)NC(=O)[C@@H](NC(=O)CNC(=O)[C@H](CCC(=O)O)NC(=O)C(C)(C)NC(=O)[C@@H](N)Cc1ccc(O)cc1)[C@@H](C)O)[C@@H](C)O)C(C)C)C(=O)N[C@@H](CC(N)=O)C(=O)N[C@@H](CCCCNC(=O)[C@@H](N)CCCCNC(=O)CC[C@H](NC(=O)CC[C@H](NC(=O)CC[C@H](NC(=O)CC[C@H](NC(=O)CC[C@H](NC(=O)CC[C@H](NC(=O)CCCCCCCCCCCCCCCCC(=O)O)C(=O)O)C(=O)O)C(=O)O)C(=O)O)C(=O)O)C(=O)O)C(=O)NC(C)(C)C(=O)N[C@H](C(=O)N[C@@H](CCCNC(=N)N)C(=O)N[C@@H](CCC(N)=O)C(=O)N[C@@H](CCCNC(=N)N)C(=O)N[C@@H](Cc1ccc(O)cc1)C(N)=O)[C@@H](C)O [Compound 112, Y-Aib-E-G-T-F-T-S-D-Y-S-E-Aib-L-E-K-Q-A-Q-Aib-A-F-V-R-H-L-I-N-K(1,3)-Aib-T-R-Q-R-Y-NH2.C18DA-gGlu-gGlu-gGlu-gGlu-gGlu-gGlu-eLys(1,2)]",
8100,"CC[C@H](C)[C@H](NC(=O)[C@H](CCCCN)NC(=O)[C@H](CCC(=O)O)NC(=O)[C@H](CC(C)C)NC(=O)C(C)(C)NC(=O)[C@@H](NC(=O)[C@H](CO)NC(=O)[C@H](Cc1ccc(O)cc1)NC(=O)[C@H](CC(=O)O)NC(=O)[C@H](CO)NC(=O)[C@@H](NC(=O)[C@H](Cc1ccccc1)NC(=O)[C@@H](NC(=O)CNC(=O)[C@H](CCC(=O)O)NC(=O)C(C)(C)NC(=O)[C@@H](N)Cc1ccc(O)cc1)[C@@H](C)O)[C@@H](C)O)[C@@H](C)CC)C(=O)N[C@@H](C)C(=O)N[C@@H](CCC(N)=O)C(=O)NC(C)(C)C(=O)N[C@@H](C)C(=O)N[C@@H](Cc1ccccc1)C(=O)N[C@H](C(=O)N[C@@H](CCCNC(=N)N)C(=O)N[C@@H](Cc1c[nH]cn1)C(=O)N[C@@H](CC(C)C)C(=O)N[C@H](C(=O)N[C@@H](CC(N)=O)C(=O)N[C@@H](CCCCNC(=O)[C@@H](N)CCCCNC(=O)CC[C@H](NC(=O)CC[C@H](NC(=O)CC[C@H](NC(=O)CC[C@H](NC(=O)CC[C@H](NC(=O)CC[C@H](NC(=O)CCCCCCCCCCCCCCCCC(=O)O)C(=O)O)C(=O)O)C(=O)O)C(=O)O)C(=O)O)C(=O)O)C(=O)NC(C)(C)C(=O)N[C@H](C(=O)N[C@@H](CCCNC(=N)N)C(=O)N[C@@H](CCC(N)=O)C(=O)N[C@@H](CCCNC(=N)N)C(=O)N[C@@H](Cc1ccc(O)cc1)C(N)=O)[C@@H](C)O)[C@@H](C)CC)C(C)C [Compound 24, Y-Aib-E-G-T-F-T-S-D-Y-S-I-Aib-L-E-K-I-A-Q-Aib-A-F-V-R-H-L-I-N-K(1,3)-Aib-T-R-Q-R-Y-NH2.C18DA-gGlu-gGlu-gGlu-gGlu-gGlu-gGlu-eLys(1,2)]",
,"CC[C@H](C)[C@H](NC(=O)[C@H](CC(C)C)NC(=O)[C@H](Cc1c[nH]cn1)NC(=O)[C@H](CCCNC(=N)N)NC(=O)[C@@H](NC(=O)[C@H](Cc1ccccc1)NC(=O)[C@H](C)NC(=O)C(C)(C)NC(=O)[C@H](CCC(N)=O)NC(=O)[C@H](C)NC(=O)[C@H](CCC(N)=O)NC(=O)[C@H](CCCCN)NC(=O)[C@H](CCC(=O)O)NC(=O)[C@H](CC(C)C)NC(=O)C(C)(C)NC(=O)[C@@H](NC(=O)[C@H](CO)NC(=O)[C@H](Cc1ccc(O)cc1)NC(=O)[C@H](CC(=O)O)NC(=O)[C@H](CO)NC(=O)[C@@H](NC(=O)[C@H](Cc1ccccc1)NC(=O)[C@@H](NC(=O)[C@H](C)NC(=O)[C@H](CCC(=O)O)NC(=O)C(C)(C)NC(=O)[C@@H](N)Cc1ccc(O)cc1)[C@@H](C)O)[C@@H](C)O)[C@@H](C)CC)C(C)C)C(=O)N[C@@H](CC(N)=O)C(=O)N[C@@H](CCCCNC(=O)[C@@H](N)CCCCNC(=O)CC[C@H](NC(=O)CC[C@H](NC(=O)CC[C@H](NC(=O)CC[C@H](NC(=O)CC[C@H](NC(=O)CC[C@H](NC(=O)CCCCCCCCCCCCCCCCC(=O)O)C(=O)O)C(=O)O)C(=O)O)C(=O)O)C(=O)O)C(=O)O)C(=O)NC(C)(C)C(=O)N[C@H](C(=O)N[C@@H](CCCNC(=N)N)C(=O)N[C@@H](CCC(N)=O)C(=O)N[C@@H](CCCNC(=N)N)C(=O)N[C@@H](Cc1ccc(O)cc1)C(N)=O)[C@@H](C)O [Compound 93, Y-Aib-E-A-T-F-T-S-D-Y-S-I-Aib-L-E-K-Q-A-Q-Aib-A-F-V-R-H-L-I-N-K(1,3)-Aib-T-R-Q-R-Y-NH2.C18DA-gGlu-gGlu-gGlu-gGlu-gGlu-gGlu-eLys(1,2)]",solubility at 2 h [1]: 10000 µg/mL
